Experimental findings from patent US20240182531A1, “KV1.3 Blockers” (priority 2021, published 2024) are described below.

pIC50: −log10 of the molar value. Where a SMILES comes first, the peptide text is derived from it. Bridges are numbered along the chain shown (N, C = ends). [ ]: non-standard residue; d: D form. Nle = CCCC[C@H](N)C(=O)O

What is called pIC50 is the IC50 on a negative log10 scale, so that one unit is a factor of ten. High values mean a small IC50, low ones a large IC50.

Sequence of Rat whole blood (P15384 whole entry): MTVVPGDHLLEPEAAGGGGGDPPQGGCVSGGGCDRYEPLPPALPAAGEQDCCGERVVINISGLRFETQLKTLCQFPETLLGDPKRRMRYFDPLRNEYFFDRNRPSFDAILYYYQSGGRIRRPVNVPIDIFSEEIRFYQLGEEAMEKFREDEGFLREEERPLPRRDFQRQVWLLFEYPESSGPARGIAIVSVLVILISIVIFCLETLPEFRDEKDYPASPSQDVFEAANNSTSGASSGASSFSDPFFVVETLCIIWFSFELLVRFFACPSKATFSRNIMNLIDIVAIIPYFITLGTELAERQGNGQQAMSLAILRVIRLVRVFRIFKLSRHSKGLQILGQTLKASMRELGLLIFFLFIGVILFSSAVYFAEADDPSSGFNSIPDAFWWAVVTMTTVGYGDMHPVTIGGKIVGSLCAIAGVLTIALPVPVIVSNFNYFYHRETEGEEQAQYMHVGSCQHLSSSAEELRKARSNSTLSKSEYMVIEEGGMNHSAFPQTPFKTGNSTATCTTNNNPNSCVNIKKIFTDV

This experiment addresses Rat whole blood (Rattus norvegicus, UniProt P15384). The format is cell-based. The note with it: IL-17A release, thapsigargin, 24 Hr, at least 2 replicates.
`CC[C@H](C)[C@@H]1NC(=O)[C@H](C)NC(=O)[C@H](CCCCN)NC(=O)[C@H](CC(C)C)NC(=O)[C@@H]2CSSC[C@@H](C(=O)N[C@@H](Cc3ccc(O)cc3)C(=O)N3CCC[C@H]3C(=O)N[C@@H](CCCNC(=N)N)C(N)=O)NC(=O)[C@H](CCCCN)NC(=O)[C@@H]3CSSC[C@H](NC(=O)[C@H](CCC(=O)O)NC(=O)[C@H](C(C)C)NC(=O)[C@H](CO)NC(=O)[C@H](C)NC(=O)[C@H](CO)NC(=O)[C@@H](NC(=O)[C@H](CCCNC(=N)N)NC(=O)[C@H](CCSC)NC(=O)[C@H](CC(=O)O)NC(=O)[C@H](CCSC)NC(=O)[C@@H](N)CC(N)=O)CSSC[C@H](NC(=O)[C@H](CCCCN)NC(=O)CNC(=O)[C@H](Cc4ccccc4)NC(=O)[C@H]([C@@H](C)CC)NC(=O)[C@H](CO)NC(=O)CNC1=O)C(=O)N[C@@H](CCSC)C(=O)N[C@@H](CC(N)=O)C(=O)N[C@@H](CCCCN)C(=O)N[C@@H](CCCCN)C(=O)N3)C(=O)N[C@@H](CCCCN)C(=O)N[C@@H](CC(C)C)C(=O)N[C@@H](CCCCN)C(=O)N2` [compound 36] (H-NMDMRCSASVECKLKCLKAIGSIFGKCMNKKCKCYPR-NH2; disulfide 6-27, 12-32, 16-34) had a pIC50 of 9.12.
In turn, `CCCC[C@@H]1NC(=O)[C@@H]2CSSC[C@H](NC(=O)[C@H](CCCNC(=N)N)NC(=O)[C@H](CCCC)NC(=O)[C@H](CC(=O)O)NC(=O)[C@H](CCCC)NC(=O)[C@@H](N)Cc3c[nH]cn3)C(=O)N[C@@H](CO)C(=O)N[C@@H](C)C(=O)N[C@@H](CO)C(=O)N[C@@H](C(C)C)C(=O)N[C@@H](CCC(=O)O)C(=O)N[C@H]3CSSC[C@H](NC(=O)[C@H](CCCCN)NC(=O)[C@H](CCCCN)NC(=O)[C@H](CC(N)=O)NC1=O)C(=O)N[C@@H](CCCCN)C(=O)N[C@H](C(=O)N[C@@H](Cc1ccc(O)cc1)C(=O)N1CCC[C@H]1C(=O)N[C@@H](CCCNC(=N)N)C(N)=O)CSSC[C@H](NC(=O)[C@H](CCCCN)NC(=O)[C@H](CCC(N)=O)NC(=O)[C@H](CCCCN)NC3=O)C(=O)N[C@@H](CC(C)C)C(=O)N[C@@H](CCCCN)C(=O)N[C@@H](C)C(=O)N[C@@H]([C@@H](C)CC)C(=O)NCC(=O)N[C@@H](CO)C(=O)N[C@@H]([C@@H](C)CC)C(=O)N[C@@H](Cc1ccccc1)C(=O)NCC(=O)N[C@@H](CCCCN)C(=O)N2` [compound 64] (H-H[Nle]D[Nle]RCSASVECKQKCLKAIGSIFGKC[Nle]NKKCKCYPR-NH2; disulfide 6-27, 12-32, 16-34) had a pIC50 of 8.92.
For `CCCC[C@@H]1NC(=O)[C@@H]2CSSC[C@H](NC(=O)[C@H](CCCNC(=N)N)NC(=O)[C@H](CCCC)NC(=O)[C@H](CC(=O)O)NC(=O)[C@H](CCCC)NC(=O)[C@@H](N)Cc3ccc(O)cc3)C(=O)N[C@@H](CO)C(=O)N[C@@H](C)C(=O)N[C@@H](CO)C(=O)N[C@@H](C(C)C)C(=O)N[C@@H](CCC(=O)O)C(=O)N[C@H]3CSSC[C@H](NC(=O)[C@H](CCCCN)NC(=O)[C@H](CCCCN)NC(=O)[C@H](CC(N)=O)NC1=O)C(=O)N[C@@H](CCCCN)C(=O)N[C@H](C(=O)N[C@@H](Cc1ccc(O)cc1)C(=O)N1CCC[C@H]1C(=O)N[C@@H](CCCNC(=N)N)C(N)=O)CSSC[C@H](NC(=O)[C@H](CCCCN)NC(=O)[C@H](CCC(N)=O)NC(=O)[C@H](CCCCN)NC3=O)C(=O)N[C@@H](CC(C)C)C(=O)N[C@@H](CCCCN)C(=O)N[C@@H](C)C(=O)N[C@@H]([C@@H](C)CC)C(=O)NCC(=O)N[C@@H](CO)C(=O)N[C@@H]([C@@H](C)CC)C(=O)N[C@@H](Cc1ccccc1)C(=O)NCC(=O)N[C@@H](CCCCN)C(=O)N2` [compound 65] (H-Y[Nle]D[Nle]RCSASVECKQKCLKAIGSIFGKC[Nle]NKKCKCYPR-NH2; disulfide 6-27, 12-32, 16-34), the pIC50 was 8.96.
Then `CCCC[C@@H]1NC(=O)[C@@H]2CSSC[C@H](NC(=O)[C@H](CCCNC(=N)N)NC(=O)[C@H](CCCC)NC(=O)[C@H](CC(=O)O)NC(=O)[C@H](CCCC)NC(=O)[C@@H](N)CO)C(=O)N[C@@H](CO)C(=O)N[C@@H](C)C(=O)N[C@@H](CO)C(=O)N[C@@H](C(C)C)C(=O)N[C@@H](CCC(=O)O)C(=O)N[C@H]3CSSC[C@H](NC(=O)[C@H](CCCCN)NC(=O)[C@H](CCCCN)NC(=O)[C@H](CC(N)=O)NC1=O)C(=O)N[C@@H](CCCCN)C(=O)N[C@H](C(=O)N[C@@H](Cc1ccc(O)cc1)C(=O)N1CCC[C@H]1C(=O)N[C@@H](CCCNC(=N)N)C(N)=O)CSSC[C@H](NC(=O)[C@H](CCCCN)NC(=O)[C@H](CCC(N)=O)NC(=O)[C@H](CCCCN)NC3=O)C(=O)N[C@@H](CC(C)C)C(=O)N[C@@H](CCCCN)C(=O)N[C@@H](C)C(=O)N[C@@H]([C@@H](C)CC)C(=O)NCC(=O)N[C@@H](CO)C(=O)N[C@@H]([C@@H](C)CC)C(=O)N[C@@H](Cc1ccccc1)C(=O)NCC(=O)N[C@@H](CCCCN)C(=O)N2` [compound 66] (H-S[Nle]D[Nle]RCSASVECKQKCLKAIGSIFGKC[Nle]NKKCKCYPR-NH2; disulfide 6-27, 12-32, 16-34), with 9.33; and `CCCC[C@@H]1NC(=O)[C@@H]2CSSC[C@H](NC(=O)[C@H](CCCNC(=N)N)NC(=O)[C@H](CCCC)NC(=O)[C@H](CC(=O)O)NC(=O)[C@H](CCCC)NC(=O)[C@@H](N)C(C)C)C(=O)N[C@@H](CO)C(=O)N[C@@H](C)C(=O)N[C@@H](CO)C(=O)N[C@@H](C(C)C)C(=O)N[C@@H](CCC(=O)O)C(=O)N[C@H]3CSSC[C@H](NC(=O)[C@H](CCCCN)NC(=O)[C@H](CCCCN)NC(=O)[C@H](CC(N)=O)NC1=O)C(=O)N[C@@H](CCCCN)C(=O)N[C@H](C(=O)N[C@@H](Cc1ccc(O)cc1)C(=O)N1CCC[C@H]1C(=O)N[C@@H](CCCNC(=N)N)C(N)=O)CSSC[C@H](NC(=O)[C@H](CCCCN)NC(=O)[C@H](CCC(N)=O)NC(=O)[C@H](CCCCN)NC3=O)C(=O)N[C@@H](CC(C)C)C(=O)N[C@@H](CCCCN)C(=O)N[C@@H](C)C(=O)N[C@@H]([C@@H](C)CC)C(=O)NCC(=O)N[C@@H](CO)C(=O)N[C@@H]([C@@H](C)CC)C(=O)N[C@@H](Cc1ccccc1)C(=O)NCC(=O)N[C@@H](CCCCN)C(=O)N2` [compound 67] (H-V[Nle]D[Nle]RCSASVECKQKCLKAIGSIFGKC[Nle]NKKCKCYPR-NH2; disulfide 6-27, 12-32, 16-34), with 9.01.
As for `CCCC[C@H](NC(=O)[C@@H]1CCCN1)C(=O)N[C@@H](CC(=O)O)C(=O)N[C@@H](CCCC)C(=O)N[C@@H](CCCNC(=N)N)C(=O)N[C@H]1CSSC[C@@H]2NC(=O)[C@H](CCCCN)NC(=O)CNC(=O)[C@H](Cc3ccccc3)NC(=O)[C@H]([C@@H](C)CC)NC(=O)[C@@H]3CSSC[C@@H](C(N)=O)NC(=O)[C@@H]4CCCN4C(=O)[C@H](Cc4ccc(O)cc4)NC(=O)[C@@H]4CSSC[C@H](NC(=O)[C@H](CCCCN)NC(=O)[C@H](CCC(N)=O)NC(=O)[C@H](CCCCN)NC(=O)[C@H](CSSC[C@H](NC(=O)[C@H](CCCCN)NC(=O)[C@H](CCCCN)NC(=O)[C@H](CC(N)=O)NC(=O)[C@H](CCCC)NC2=O)C(=O)N[C@@H](CCCCN)C(=O)N4)NC(=O)[C@H](CCC(=O)O)NC(=O)[C@H](C(C)C)NC(=O)[C@H](CO)NC(=O)[C@H](C)NC(=O)[C@H](CO)NC1=O)C(=O)N[C@@H](CC(C)C)C(=O)N[C@@H](CCCCN)C(=O)N[C@@H](C)C(=O)N[C@@H]([C@@H](C)CC)C(=O)NCC(=O)N3` [compound 81] (H-P[Nle]D[Nle]RCSASVECKQKCLKAIGCIFGKC[Nle]NKKCKCYPC-NH2; disulfide 6-27, 12-32, 16-34, 22-37), the pIC50 is 9.09.
“Ac-LRCSASVECKQKCLAAIGSIFGKC[Nle]NKKCKCYPR-OH (cysteine pairing not given here) [compound 104]” showed a pIC50 of 9.05.
